Data: patent US7084158B2, “Substituted propargylamines” (Bayer Cropscience S.A., priority 2001, dated 2006)

Key:
Type in all cases: in vivo
Set-up in all cases: key: compounds were considered to be active when, at a concentration of 500 ppm or less, they had an activity on the harmful organisms of 50% or more
Nilaparvata lugens = assay: Example A: rice leaf dip, leafhopper larvae mortality; settings: 500 ppm or less; L3 larvae on dipped rice plants; after 6 days
Description: The leaves of 12 rice plants having a stem length of 8 cm were dipped for 5 seconds into an aqueous solution of the formulated compound to be examined. After the solution had run off, the rice plants treated in this manner were placed into a Petri dish and populated with about 20 larvae (L3 stage) of the rice leafhopper species Nilaparvata lugens. The Petri dish was closed and then stored in a climatized chamber (16 hours of light/day, 25° C., 40–60% relative atmospheric humidity). After 6 days of storage, the mortality among the leafhopper larvae was determined. The compounds of the following examples were active: Nos. 29, 32, 42, 43, 51, 70, 84, 1002, 1004, 1005, 1040, 180, 184, 193, 197, 203, 209, 1059, 264, 265, 1066.

Heliothis virescens [1] = assay: Example B: tobacco budworm eggs on filter paper/insect diet, mortality; settings: 500 ppm or less; 24-hour-old eggs dipped, diet treated; after 6 days
[2] = test system: Diabrotica undecimpunctata; assay: Example C: corn rootworm eggs with maize corn, mortality; settings: 500 ppm or less; 4-5-day-old eggs; after 6 days
Carpocapsa pomonella [3] = assay: Example D: dipped apples, codling moth L1 larvae mortality; settings: 500 ppm or less, after 14 days
Description: Apples were dipped into an aqueous solution of the formulated compound to be examined. The apples were then populated with 10 L1 larvae of the codling moth (Carpocapsa pomonella). After 14 days of storage at about 25° C., the effect of the compound on the larvae was determined (mortality). The compounds of the following examples were active: Nos. 14, 15, 17, 18, 70, 1007, 1008, 1009, 1036, 1038, 197.

Plutella maculipennis = assay: Example K: sprayed white cabbage leaf, diamondback moth larvae mortality; settings: 500 ppm or less, after 3 days
Description: A white cabbage leaf was sprayed with an aqueous solution of the formulated compound to be examined. After the spray coating had dried, the treated leaf was populated with larvae of the diamondback moth (Plutella maculipennis). After 3 days of storage at about 23° C., the effect of the compound on the larvae was determined (mortality). The compounds of the following examples were active: 60, 70, 1002, 1004, 1005, 1036, 197.

[4] = test system: Leptinotarsa decemlineata; assay: Example L: potato leaves and larvae sprayed, Colorado beetle mortality; settings: 500 ppm or less, after 4 days
Description: Potato leaves were populated with larvae of the Colorado beetle (Leptinotarsa decemlineata). Leaves and larvae were then sprayed with an aqueous solution of the formulated compound to be examined. After 4 days of storage at about 25° C., the effect of the compound on the larvae was determined (mortality). The compounds of the following examples were active: 60, 70, 1002, 1004, 1005, 1036, 1047, 197.

Ctenocephalides felis = assay: Example M: cat fleas fed with treated cattle blood, mortality; settings: 500 ppm or less; adult fleas fed blood-preparation mixture; after 48 hours
Description: The formulated compound was mixed with defibrinated cattle blood. 10 adult cat fleas (Ctenocephalides felis) were fed with this blood-preparation mixture. After 48 hours at about 38° C., the effect of the compound on the fleas was determined (mortality). The compounds of the following examples were active: 70, 1002, 1004, 1005, 1036, 60, 197, 1057.

Spodoptera exigua [5] = assay: Example Y: cotton plants sprayed, cut leaves, sugar beet armyworm mortality; settings: 500 ppm or less, leaves cut after drying, L2 larvae, after 4 days
Description: Cotton plants were sprayed with an aqueous solution of the formulated compound to be examined. After drying, leaves were cut off, placed into a Petri dish and populated with 5 L2 larvae of the sugar beet armyworm (Spodoptera exigua). After 4 days of storage at about 23° C., the mortality among the larvae was determined. The following examples were active: 1036, 70, 60, 1047, 197.

Spodoptera exigua [6] = assay: Example Z: cotton leaves with larvae sprayed, sugar beet armyworm mortality; settings: 500 ppm or less; cotton leaves populated then sprayed; L2 larvae; after 4 days
Description: Cotton leaves were populated with 5 L2 larvae of the sugar beet armyworm (Spodoptera exigua) and then sprayed with an aqueous solution of the formulated compound to be examined. After 4 days of storage at about 23° C., the mortality among the larvae was determined. The following examples were active: 1036, 70, 60, 1047, 197.

Carpocapsa pomonella [7] = assay: Example AA: insect diet mixed with compound, codling moth L1 larvae mortality; settings: 500 ppm or less, compound mixed into insect diet, after 14 days
Description: Insect diet was mixed with an aqueous solution of the formulated compound to be examined and populated with 10 L1 larvae of the codling moth (Carpocapsa pomonella). After 14 days of storage at about 23° C., the mortality among the larvae was determined. The following examples were active: 70, 197.

Heliothis virescens [8] = assay: Example AB: cotton leaves with larvae sprayed, tobacco budworm mortality; settings: 500 ppm or less; cotton leaves with L2 larvae sprayed; after 4 days
Description: Cotton leaves were placed into a Petri dish, populated with 5 L2 larvae of the American tobacco budworm (Heliothis virescens) and sprayed with an aqueous solution of the formulated compound to be examined. After 4 days of storage at about 25° C., the mortality among the larvae was determined. The following examples were active: 70, 1047, 197.

[9] = test system: Diabrotica undecimpunctata; assay: Example AC: treated soil, southern corn rootworm eggs mortality; settings: 500 ppm or less, eggs added after 0d, 21d and 42d, after 2 weeks
Description: An aqueous solution of the formulated compound to be examined was mixed with soil. After 0d, 21d and 42d, eggs of the southern corn rootworm (Diabrotica undecimpunctata) were placed together with 2 pre-swollen maize corns into a dish, covered with the treated soil and moisted with 10 ml of water. Soil and eggs were placed in a greenhouse (23° C., 60% relative atmosphere humidity). After 2 weeks of storage, the effect of the compound on the eggs and any larvae hatched therefrom was determined (mortality). The following examples were active: 70, 60, 197, 204.

[10] = test system: Trialeurodes vaporariorum; assay: Example AD: bush beans sprayed, white fly larvicidal action; settings: 500 ppm or less; bush beans sprayed after hatching; after 11 days
Description: For oviposition, bush beans (Phaseolus vulgaris) were populated for 48 hours with adults of the white fly (Trialeurodes vaporariorum). After the larvae had hatched, the plants were sprayed to run-off point with an aqueous solution of the formulated compound to be examined. After 11 days, the larvicidal action was determined. The following examples were active: 1036, 70, 60, 1040, 197.

Rhipicephalus sanguineus = assay: Example AF: treated filter paper, tick larvae mortality; settings: 500 ppm or less, after 24 hours
Description: The formulated compound was pipetted onto filter paper. After the solvent had evaporated, 20–30 tick larvae (Rhipicephalus sanguineus) were placed onto the filter paper. After 24 hours at about 25° C., the effect of the compound on the ticks was determined (mortality). The following examples were active: 197, 1057.

Cc1cc(C(F)(F)F)cc(C#CCN2CCC(C)CC2)n1 [Example 197]
active: mortality among the leafhopper larvae (Nilaparvata lugens) | effect on the eggs and hatched larvae (mortality) (Heliothis virescens [1]) | effect on the eggs and hatched larvae (mortality) [2] | effect on the larvae (mortality) (Carpocapsa pomonella [3]) | effect on the larvae (mortality) (Plutella maculipennis) | effect on the larvae (mortality) [4] | effect on the fleas (mortality) (Ctenocephalides felis) | mortality among the larvae (Spodoptera exigua [5]) | mortality among the larvae (Spodoptera exigua [6]) | mortality among the larvae (Carpocapsa pomonella [7]) | mortality among the larvae (Heliothis virescens [8]) | effect on the eggs and hatched larvae (mortality) [9] | larvicidal action [10] | effect on the ticks (mortality) (Rhipicephalus sanguineus)
